Laboratory results from publication PMC12728655, “Engineering an Artificial Myxopyronin Derivative with Enhanced Metabolic Stability via Mutasynthesis” (JACS Au, 2025).
≈ marks a conversion by molar mass, not a printed value.

System: Rif^R-M. tuberculosis H37Rv
Assay: microbe, parasite or virus in culture
Format: cell-based
Conditions: Mycobacterium tuberculosis

Row | Compound | MIC [µg/mL]
1 | CO[C@H]1/C=C/O[C@@]2(C)Oc3c(C)c(O)c4c(O)c(c(/C=N/N5CCN(C)CC5)c(O)c4c3C2=O)NC(=O)/C(C)=C\C=C\[C@H](C)[C@H](O)[C@@H](C)[C@@H](O)[C@@H](C)[C@H](OC(C)=O)[C@@H]1C [rifampin] | > 64
2 | CCC/C(C)=C/C=C(\C)C(=O)c1c(O)cc([C@H](C)CC/C=C/NC(=O)OC)oc1=O [MYX A (1), myxopyronins A] | 2 to 4 (≈ 4.79 to 9.58 µM)
3 | COC(=O)N/C=C/CC[C@@H](C)c1cc(O)c(C(=O)/C(C)=C/C=C(\C)CCC(F)(F)F)c(=O)o1 [MYX (8)] | 1 (≈ 2.12 µM)
